Reference: patent publication US6218419A, “Aminoiminoquinone and aminoquinone alkaloid compounds and methods of use” (priority 1999, dated 2001)
In brackets after ≈: the same amount, converted by molar mass.

How the values were obtained:
[1] = test system: A549 human lung adenocarcinoma; test: A549 in vitro anti-tumor testing (MTT); type: cell-based
Procedure: (§1) P388 cells can be obtained from the National Cancer Institute, Bethesda, Md., and A549 cells can be obtained from American Type Culture Collection, Rockville, Md. All cell lines are maintained in Roswell Park Memorial Institute (RPMI) medium 1640 supplemented with 10% bovine calf serum. All cell lines are cultured in plastic tissue culture flasks and kept in an incubator at 37° C. in humidified air containing 5% CO2. Prior to testing, antibiotic-free stock cultures of each of the cell lines are subcultured to 10^6 cells/ml by dilution in fresh growth medium at 2 to 3 day intervals.
Similar procedures are utilized for A549 cells which require an additional 48 hr exposure prior to MTT addition. Results are expressed as percent inhibition compared to the negative (no drug) control. Positive drug controls are included to monitor drug sensitivity of each of the cell lines. These include varying dilutions of 5-fluorouracil, adriamycin, methotrexate and vinblastine.
(§2) To quantitate the effects on cell proliferation and resulting IC50 values, 75 μl of warm growth media containing 5 mg/ml MTT is added to each well, cultures are returned to the incubator, and left undisturbed for 90 minutes. […]

[2] = test system: P388 murine leukemia; test: P388 in vitro anti-tumor testing (MTT); type: cell-based; conditions: Mus musculus, 48-hr exposure
Procedure: as §1
To assess the antiproliferative effects of agents against the P388 cell line, 200 μl cultures (96 well tissue culture plates, Nunc, Denmark) are established at 1×10^5 cells/ml in drug-free medium or medium containing the test agent at 10.0, 1.0, 0.10 and 0.010 μg/ml. The solvent for all dilutions is ethanol. All experimental cultures are initiated in medium containing Gentamycin sulfate (50 μg/ml; Schering Corporation, Kenilworth, N.J.). After 48-hr exposure, P388 cells are enumerated using 3-[4,5-Dimethylthiazol-2-yl]-2,5-diphenyltetrazolium bromide (MTT) as described below.
as §2

[3] = test system: EL-4.IL-2 murine lymphoma cells; test: EL-4 adherence testing; type: cell-based
Description: This assay is based on the properties of extracts/pure compounds which serve as protein kinase C (PKC) active agents to either induce or inhibit the adherence of EL-4.IL-2 murine lymphoma cells to plastic surfaces. The general methodology of this assay is described in detail in the following: Longley, R. E. and D. Harmody (1991) J. Antibiotics 44:93-102.

[4] = target: T1, ICE (Homo sapiens, UniProt P29466); test: ICE enzyme assay; type: biochemical
T1 construct: purchased BASF, Worcester, Mass
T1 sequence (P29466 120-297 limits assumed): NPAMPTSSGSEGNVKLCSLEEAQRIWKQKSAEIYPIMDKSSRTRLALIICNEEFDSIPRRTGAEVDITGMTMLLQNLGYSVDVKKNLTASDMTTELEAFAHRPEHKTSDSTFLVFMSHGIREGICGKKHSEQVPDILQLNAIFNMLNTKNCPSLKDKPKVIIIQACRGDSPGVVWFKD
T1 sequence (P29466 317-404 limits assumed): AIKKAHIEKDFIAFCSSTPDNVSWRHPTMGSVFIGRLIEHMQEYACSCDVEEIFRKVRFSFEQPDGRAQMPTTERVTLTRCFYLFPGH
Procedure: (§3) Each of the following assays were performed using either a Tecan 8051 or a Tecan Megaflex automated liquid handling system. Extracts of marine organisms were tested at 5 μg/ml for all assays except DPP IV and LAR which were tested at 50 μg/ml. The inhibition of enzyme activity found in the presence of extract was compared to that of an uninhibited control. Extracts which inhibited the enzyme>50% were retested in triplicate to confirm activity.
Test samples were aliquoted into 96 well microtiter plates and allowed to air dry. Stock ICE enzyme (supplied by BASF, Worcester, Mass.) was diluted in reaction buffer (50 mM Hepes pH 7.5, 10% glycerol, 5 mM dithiothreitol,0.5 mM EDTA and 5 mM β-mercaptoethanol) to a concentration that yielded a minimum increase of 0.1 optical density units after 30 minutes of reaction time. Diluted ICE enzyme was incubated at room temperature for 5 minutes prior to aliquoting 180 μl into each sample well. The plates were incubated at 30° C. for 5 minutes following a brief mixing of the well contents by shaking on a plate shaker. A volume of 20 μl of the enzyme substrate (Ac-YVAD-pNA) was added to each well resulting in a final concentration of 50 μM. […] Plates were read on a plate reader with absorbance measured at 405 nm. Data was expressed as percent inhibition by comparing the absorbance values of test samples with those of the positive control (no sample).

[5] = target: T2, Aminopeptidase N (CD13) (Homo sapiens, UniProt P15144); test: Aminopeptidase N (CD13) ELISA capture enzyme assay; type: biochemical; conditions: 18 h; at 5 μg/ml; read-out: ApN, I
T2 construct: The source of Aminopeptidase N was the KG-1 cell line; endogenous in cells; host or cells: KG-1 cell lysate
T2 sequence (P15144 whole entry): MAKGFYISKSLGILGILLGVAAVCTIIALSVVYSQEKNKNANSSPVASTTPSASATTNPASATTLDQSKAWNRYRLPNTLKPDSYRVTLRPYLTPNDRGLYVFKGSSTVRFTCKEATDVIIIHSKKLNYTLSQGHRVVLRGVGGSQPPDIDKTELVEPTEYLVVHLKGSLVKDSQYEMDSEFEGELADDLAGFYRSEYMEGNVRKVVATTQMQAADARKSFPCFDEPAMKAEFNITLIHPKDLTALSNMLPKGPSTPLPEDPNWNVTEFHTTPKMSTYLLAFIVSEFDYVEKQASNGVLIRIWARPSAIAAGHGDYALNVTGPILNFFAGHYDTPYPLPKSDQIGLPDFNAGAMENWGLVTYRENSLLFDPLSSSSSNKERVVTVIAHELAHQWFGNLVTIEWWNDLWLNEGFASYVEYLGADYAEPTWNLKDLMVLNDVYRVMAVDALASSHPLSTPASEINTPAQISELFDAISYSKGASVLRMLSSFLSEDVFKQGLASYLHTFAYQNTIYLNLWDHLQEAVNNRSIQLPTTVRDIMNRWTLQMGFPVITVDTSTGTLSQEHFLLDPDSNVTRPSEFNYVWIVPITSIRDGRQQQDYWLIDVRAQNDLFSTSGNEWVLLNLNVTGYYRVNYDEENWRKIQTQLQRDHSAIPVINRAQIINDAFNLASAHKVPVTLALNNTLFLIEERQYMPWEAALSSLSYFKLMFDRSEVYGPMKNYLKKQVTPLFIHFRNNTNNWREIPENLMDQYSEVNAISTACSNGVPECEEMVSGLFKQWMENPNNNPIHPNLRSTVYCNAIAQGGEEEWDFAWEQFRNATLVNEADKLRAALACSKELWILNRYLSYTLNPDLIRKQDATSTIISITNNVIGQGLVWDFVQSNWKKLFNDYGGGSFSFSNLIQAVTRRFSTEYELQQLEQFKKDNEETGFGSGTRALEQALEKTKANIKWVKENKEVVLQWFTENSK
Procedure: as §3
Aminopeptidase N was assayed using an Enzyme-Linked Immunosorbant (ELISA) capture assay. Briefly, 96-well plates were coated with goat anti-mouse immunoglobulins (Sigma #M4169). Following an overnight incubation the plates were washed three times with PBS-0.1% Triton X-100. The secondary (capture) antibody was then added to the plate (100 μl/well, 3.7 μg/ml; antihuman MY7, Coulter Corporation) and incubated for 3 hours at room temperature. Plates were washed three times with PBS-0.1% Triton X-100. The source of Aminopeptidase N was the KG-1 cell line, 100 μl of an appropriate dilution of the KG-1 cell lysate was added to each well, incubated for 3 hours and then washed a final time. The enzyme assay was performed in PBS in a final volume of 200 μl with 200 μM ala-pNA as substrate and either test samples or controls. Liberated p-nitroaniline was determined by the change in absorbance at 405 nm following an 18 hr incubation at 37° C.

[6] = test system: unstimulated lymphocytes; test: Lymphocyte viability (LCV) testing; type: cell-based
Description: (§4) These assays measure the ability of the extracts/pure compounds to inhibit allogeneic immune responsiveness (MLR) and to affect the viability of unstimulated lymphocytes. These general methods are described in the following: Longley, R. E., D. Caddigan, D. Harmody, M. Gunasekera and S. P. Gunasekera (1991) Transplantation 52: 650-656.

[7] = test system: allogeneic immune responsiveness (MLR); test: Two-way mixed lymphocyte reaction (MLR); type: cell-based
Description: as §4

[8] = target: T3, Calcineurin (Bos taurus, UniProt P48452); test: Calcineurin phosphatase assay (pNPP); type: biochemical, bovine; conditions: for inhibition at 0.5 µg/mL / inhibition at 5 µg/mL: 1 h, read-out: CaN, I; for inhibition at 0.5 µg/mL: at 0.5 μg/ml; for inhibition at 5 µg/mL: at 5 μg/ml; for IC50: pure compound, read-out: CaN, IC50 (converted)
T3 construct: Calcineurin was prepared from bovine brain; from tissue; host or cells: bovine brain
Procedure: Calcineurin activity was assayed in 96-well microtiter plates in a final volume of 50 μl. Each well contained 50 mM Tris-HCI pH 7.5, 0.5 mM MnCl2, 0.05 mM CaCl2, 1 mM DTT, 50 mM p-nitrophenylphosphate (pNPP), 0.3 μg calcineurin, a five-fold excess of calmodulin, and either test samples or control compounds. Plates were incubated at 30° C. for 60 min. Liberated p-nitrophenol was determined by the change in absorbance at 405 nm.

[9] = target: T4, CPP32 (Homo sapiens, UniProt P42574); test: CPP32 enzyme assay; type: biochemical
T4 construct: purchased BASF, Worcester, Mass
T4 sequence (P42574 29-175 limits assumed): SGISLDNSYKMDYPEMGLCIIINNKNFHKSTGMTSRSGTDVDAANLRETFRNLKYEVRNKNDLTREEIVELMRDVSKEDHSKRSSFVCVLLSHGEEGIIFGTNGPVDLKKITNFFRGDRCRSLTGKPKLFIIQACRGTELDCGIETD
T4 sequence (P42574 176-277 limits assumed): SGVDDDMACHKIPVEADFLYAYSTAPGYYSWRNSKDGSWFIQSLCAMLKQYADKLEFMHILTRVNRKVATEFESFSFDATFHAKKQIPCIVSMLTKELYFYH
Procedure: as §3
Test samples were aliquoted into 96 well microtiter plates and allowed to air dry. The stock CPP32 enzyme (BASF, Worcester, Mass.) was diluted by adding 10 μl of the enzyme to 17 ml of reaction buffer (50 mM Hepes pH 7.5; 10% glyccrol; 5 mM Dithiothreitol; 0.5 mM EDTA). A volume of 180 μl of the diluted enzyme was added to wells containing the dried test samples, or to empty wells (control). The contents of the microtiter wells were mixed by shaking on a plate shaker. Plates were incubated at 30° C. for 5 minutes. […] Controls for each plate consisted of an inhibitor control (50 nM DEVD-CHO final concentration); positive control (enzyme and substrate) and negative control (reaction buffer substrate). The plates were covered with aluminum foil and mixed using a plate shaker for 5 min. then incubated at 30° C. for 30 minutes. Plates were read using a plate reader with absorbance measured at 405 nm. Data was expressed as percent inhibition by comparing the absorbance values of test samples with those of the positive control (no sample).

IC50 [1] [µg/mL] | IC50 [2] [µg/mL] | ICE inhibition [4] | inhibition at 5 µg/mL [5] [%] | IC50 [7] [µg/mL] | inhibition at 0.5 µg/mL [8] [%] | inhibition at 5 µg/mL [8] [%] | IC50 [8] [µM] | CPP32, IC50 [9] [µg/mL] | inhibition at 0.5 µg/mL ([9]; 0.5 h, pH 7.5, at 0.5 μg/ml, read-out: CPP32, I) [%] | inhibition at 5 µg/mL ([9]; 0.5 h, pH 7.5, at 5 μg/ml, read-out: CPP32, I) [%] | Compound | EL-4 adherence [3] | IC50 [6] [µg/mL]
0.04 | 0.06 | not detected | 54.9 | 0.68 (≈ 2.66 µM) | 46 | 75 | 2.15 | 0.02 | 76.2 | 86.5 | N=C1C(Cl)=C(N)C(=O)c2[nH]cc(C(O)CO)c21 (stereo not drawn) [Secobatzelline A, secobatzelline A] | inh. adhesion | 1.4 (≈ 5.48 µM)
2.86 | 1.22 | – | – | – | 22 | 43 | 8.61 | – | – | – | NC1=C(Cl)C(=O)c2c(C(O)CO)c[nH]c2C1=O (stereo not drawn) [Secobatzelline B, secobatzelline B] | – | –
